In article PMC7927014, “Novel Small Molecule Hsp90/Cdc37 Interface Inhibitors Indirectly Target K-Ras-Signaling” (Cancers, 2021):
pIC50: −log10 of the molar value.

Assays:
Hsp90/Cdc37 [1] = target: T1, Hsp90/Cdc37 (Homo sapiens, UniProt P07900); experiment: Hsp90/Cdc37 split Renilla luciferase assay, full length Hsp90 (cell lysate; IC50 and 20 μM validation); assay type: biochemical; settings: MolPort Screening-3, tested concentration of drugs 20 μM
T1 construct: The Hsp90/Cdc37 split Renilla luciferase assay using the full length Hsp90 for the compound screening was described previously; expressed in transfected cells; host or cells: HEK293 EBNA cells, cleared lysates
Protocol: (§1) In the second in silico screening of the FIMM database, we employed the four identified chemical scaffolds (Figure S2B) for the visual inspection of the FIMM compound library. […] All of the purchased compounds were validated in vitro at 20 μM using the split Renilla luciferase assay.
(§2) The Hsp90/Cdc37 split Renilla luciferase assay using the full length Hsp90 for the compound screening was described previously. […] After 48 h, the cells were trypsinized and washed with PBS. The harvested cells were lysed in 1 mL of the 1x lysis buffer provided in the Renilla Luciferase Reporter Assay System Kit from Promega (cat. E2820), and were incubated on ice for 10 min. The cell lysates were then cleared by centrifugation at 13,000× g for 1 min. […] After this, the screening/test compounds or DMSO—as indicated—were added to each well. In total, 5 µL NRL-Hsp90- or NRL-N-Hsp90-lysate was added to each well, one row at a time. Subsequently, the plate was incubated for 5 min at room temperature (RT). […] Just before the reading, 20 µL assay buffer containing 2× Renilla luciferase substrate (coelenterazine) was added. For the FIMM screening, sample wells were read on a PHERAstar plate reader (BMG LABTECH) at a gain level of 4000, after 10 s shaking, using a hypomorph of NRL-Hsp90. For the subsequent validations of the compounds, sample wells with the above-described assay constructs were read using a synergy H1 Hybrid Multi-Mode reader (BioTek) in the luminescence detection mode, as described previously in detail.

Hsp90/Cdc37 [2] = experiment: FIMM screening in split Renilla luciferase assay with hypomorphic NRL-Hsp90 construct, 20 μM; assay type: biochemical
Protocol: as §1, §2

Hsp90α (N-terminal) = target: T2, Hsp90α (N-terminal) (Homo sapiens, UniProt P07900); experiment: Hsp90 N-terminal ATP-binding site competition assay (FITC-geldanamycin fluorescence polarization)
T2 construct: purchased BPS Bioscience 50298
Protocol: The reaction was initiated by adding 35 ng/μL purified recombinant Hsp90α, and was incubated at RT with slow shaking for 2 h. All of the reactions were performed in a black, low binding NUNC microtiter plate, included in the kit, and the total reaction volume was 50 μL. The enzyme control was measured without the test compound, and the enzyme background control was measured without the test compound or Hsp90α. […] All of the controls and the blank contained 10% DMSO, as did all of the samples of the test compounds. All of the samples were analyzed as duplicates. […] The blank value was subtracted from all of the other values, and the fluorescence polarization was determined as:(1) mP = ((III − I⊥)/(III+ I⊥)) × 1000 where III is the intensity of the parallel, and I┴ the intensity of the perpendicular polarized light.

K-RasG12V nanoclustering = experiment: K-RasG12V nanoclustering-FRET (FLIM-FRET) in HEK cells; assay type: cell-based; settings: 24 h, conglobatin A 2 μM, salinomycin 1.3 μM, 17-AAG 2 μM, CAY10585 10 μM, hit compounds indicated concentrations
Protocol: In total, 80,000 HEK cells were seeded in 12-well plates containing sterilized 16-mm coverslips and 1 mL medium. The next day, the cells were transfected using jetPRIME or FuGENE HD transfection reagent. For the donor fluorophore-only samples, the cells were transfected with 500 ng mGFP-tagged RasG12V plasmid. For the nanoclustering-FRET pair samples, the cells were transfected with both the donor and acceptor constructs, i.e., pmGFP- and pmCherry- RasG12V at a plasmid ratio of 1:3, respectively, and a total of 800 ng plasmids. The next day, the cells were treated with either 0.1% DMSO vehicle control or the indicated concentrations of compounds diluted in DMEM or RPMI medium for 24 h. For the gene silencing studies, the cells were transfected with the indicated amounts of siRNAs, together with the FRET pair constructs. The plasmids and siRNA were diluted in the same jetPRIME transfection buffer, followed by the addition of jetPRIME. […] The lifetime of the mGFP donor fluorophore was measured using a fluorescence microscope (Zeiss AXIO Observer D1) equipped with a fluorescence lifetime imaging attachment (Lambert Instruments), as described previously in detail. The apparent FRET efficiency (Eapp) was calculated as Eapp = (1 − τDA/τD) × 100%, with the measured fluorescence lifetimes τDA of the FRET sample and the τD of the donor-only sample.

MDA-MB-231 cells = experiment: 2D cell proliferation (alamarBlue); assay type: cell-based; settings: Homo sapiens, MDA-MB-231, 72 h
Protocol: Per well, 500–700 cells were seeded in 96-well flat bottom culture plates in 100 µL. After 24 h, the cells were treated with 0.1% DMSO vehicle control or test compounds diluted in a medium using a 1:2 dilution-series, starting at 100 µM. The plates were further incubated for 72 h. The cell viability was measured after the addition of 10% alamarBlue reagent per well (cat. no. DAL1100, Thermo Fisher Scientific). The fluorescence intensity (excitation 560 nm and emission 590 nm) was measured after 4 h by the use of a H1 Hybrid Multi-Mode reader.

Hsp90, Hsp70 = experiment: Western blotting of Hsp90 and Hsp70 (heat shock response); assay type: cell-based; settings: Western blot, 24 h; four cancer cell lines; 17-AAG 2 μM
Protocol: (§3) The cells in the RIPA buffer were placed on ice for 20 min, and were then sonicated in ice cold water for 5 min. […] Equal amounts of protein were separated by 10% SDS-PAGE, and were then transferred onto a nitrocellulose membrane (cat. no. NBA 083C001EA, Protran) using a wet transfer system (Bio-Rad) or semidry Transferblot Turbo Transfer System (Bio-Rad). After the transfer, the membranes were blocked for 30 min in 5% skimmed milk dissolved in 1× TBST, and then incubated with 1:2000 primary antibodies in 5% BSA in TBST at 4 °C overnight.
(§4) The next day, the membranes were washed three times in TBST for 10 min, and then incubated with secondary antibodies (1:5000) diluted in 5% skimmed milk in TBST for 1 h at RT. […] All of the antigens and molecular weights in kDa are labelled next to the blots on the figures. Uncropped Western blot data are attached as Figure S6.

HIF-1α = experiment: Western blotting of HIF-1α in nuclear extracts; assay type: cell-based; settings: Western blot of nuclear extracts, 24 h; K-RasG12V-transfected HEK and MDA-MB-231 cells; conglobatin A 5 or 10 μM, 17-AAG 2 μM
Protocol: as §3, §4

H-RasG12V nanoclustering = experiment: H-RasG12V nanoclustering-FRET (FLIM-FRET) in HEK cells; assay type: cell-based; settings: 24 h, conglobatin A 2 μM, salinomycin 1.3 μM, CAY10585 10 μM
Protocol: In total, 80,000 HEK cells were seeded in 12-well plates containing sterilized 16-mm coverslips and 1 mL medium. The next day, the cells were transfected using jetPRIME or FuGENE HD transfection reagent. For the donor fluorophore-only samples, the cells were transfected with 500 ng mGFP-tagged RasG12V plasmid. For the nanoclustering-FRET pair samples, the cells were transfected with both the donor and acceptor constructs, i.e., pmGFP- and pmCherry- RasG12V at a plasmid ratio of 1:3, respectively, and a total of 800 ng plasmids. The next day, the cells were treated with either 0.1% DMSO vehicle control or the indicated concentrations of compounds diluted in DMEM or RPMI medium for 24 h. For the gene silencing studies, the cells were transfected with the indicated amounts of siRNAs, together with the FRET pair constructs. The plasmids and siRNA were diluted in the same jetPRIME transfection buffer, followed by the addition of jetPRIME. After 48 h of transfection, the cells were fixed in 4% paraformaldehyde for 10 to 15 min, before being mounted onto slides with Mowiol 4–88 (cat. no. 81381, Sigma-Aldrich). The lifetime of the mGFP donor fluorophore was measured using a fluorescence microscope (Zeiss AXIO Observer D1) equipped with a fluorescence lifetime imaging attachment (Lambert Instruments), as described previously in detail. The apparent FRET efficiency (Eapp) was calculated as Eapp = (1 − τDA/τD) × 100%, with the measured fluorescence lifetimes τDA of the FRET sample and the τD of the donor-only sample.

Gal3 = experiment: Western blotting of galectin-3; assay type: cell-based; settings: Western blot, 24 h; K-RasG12V-transfected HEK and MDA-MB-231 cells
Protocol: The cells were trypsinized, washed with PBS, and lysed in RIPA buffer (cat no. 89900, ThermoFisher Scientific) containing protease and phosphatase inhibitors (cat. no. A32959, ThermoFisher Scientific) and 1 mM phenylmethylsulfonyl fluoride (PMSF). The cells in the RIPA buffer were placed on ice for 20 min, and were then sonicated in ice cold water for 5 min. The lysates were centrifuged at 4 °C, and their protein was quantified using a BCA kit (cat. no. 23225, ThermoFisher Scientific). Equal amounts of protein were separated by 10% SDS-PAGE, and were then transferred onto a nitrocellulose membrane (cat. no. NBA 083C001EA, Protran) using a wet transfer system (Bio-Rad) or semidry Transferblot Turbo Transfer System (Bio-Rad). After the transfer, the membranes were blocked for 30 min in 5% skimmed milk dissolved in 1× TBST, and then incubated with 1:2000 primary antibodies in 5% BSA in TBST at 4 °C overnight. […]
The next day, the membranes were washed three times in TBST for 10 min, and then incubated with secondary antibodies (1:5000) diluted in 5% skimmed milk in TBST for 1 h at RT. […] The protein bands were detected with a ChemiDoc MP instrument (Bio-Rad) after treatment with an ECL reagent (cat. no. 170-5061, BioRad). […]

**Q.** Which “normalized RLU” value (Hsp90/Cdc37 [1]; RLU normalized to DMSO (=1.00)) does the source give for C=CCNC1=C2C[C@@H](C)C[C@H](OC)[C@H](O)[C@@H](C)/C=C(\C)[C@H](OC(N)=O)[C@@H](OC)/C=C\C=C(/C)C(=O)NC(=CC1=O)C2=O [17-AAG, 17-allylamino-17-demethoxy-geldanamycin, reference compound] here?
**A.** 0.91

**Q.** And the “Average RLU” value (Hsp90/Cdc37 [1]; average of 3 wells (DMSO 248028))?
**A.** 225640 RLU

**Q.** And the “normalized RLU (FIMM Screening-1)” value (Hsp90/Cdc37 [2]; DMSO = 1.00)?
**A.** 0.89

**Q.** And the “normalized RLU (FIMM Screening-2, scaffold based)” value (Hsp90/Cdc37 [2]; DMSO = 1.00)?
**A.** 0.89

**Q.** What about the “Average RLU (FIMM Screening-1)” value (Hsp90/Cdc37 [2]; mean of 3 wells, DMSO 50019) of the same compound?
**A.** 44367 RLU

**Q.** And the “Average RLU (FIMM Screening-2, scaffold based)” value (Hsp90/Cdc37 [2]; mean of 3 wells, DMSO 51006)?
**A.** 45379 RLU

**Q.** What about the “competition with FITC-geldanamycin (ATP-pocket binding, polarization signal)” value (Hsp90α (N-terminal)) of the same compound?
**A.** significantly reduced the signal

**Q.** What about the “K-RasG12V nanoclustering-FRET” value (K-RasG12V nanoclustering) of the same compound?
**A.** same selectivity

**Q.** And the pIC50 (MDA-MB-231 cells)?
**A.** 6.00

**Q.** What about the “induction of Hsp90 or Hsp70 expression (heat shock response)” value (Hsp90, Hsp70) of the same compound?
**A.** increase in Hsp90 and, in particular, Hsp70

**Q.** What about the “nuclear levels of HIF-1α” value (HIF-1α) of the same compound?
**A.** decreased the nuclear levels of HIF-1α

**Q.** What does the source list for COC(=O)c1ccc(O)c(NC(=O)COc2ccc(C34CC5CC(CC(C5)C3)C4)cc2)c1 [CAY10585]?
**A.** K-RasG12V nanoclustering-FRET (K-RasG12V nanoclustering): selectively decreased; H-RasG12V nanoclustering-FRET (H-RasG12V nanoclustering): not H-RasG12V nanoclustering-FRET; Gal3 levels (Gal3): decreased the Gal3 levels

**Q.** Which “K-RasG12V nanoclustering-FRET” value (K-RasG12V nanoclustering) does the source give for CC[C@@H](C(=O)[C@@H](C)[C@@H](O)[C@H](C)[C@@H]1O[C@@H]([C@@H](CC)C(=O)O)CC[C@@H]1C)[C@H]1O[C@]2(C=C[C@@H](O)[C@]3(CC[C@@](C)([C@H]4CC[C@](O)(CC)[C@H](C)O4)O3)O2)[C@H](C)C[C@@H]1C [salinomycin] here?
**A.** blocks K-RasG12V-

**Q.** What about the “H-RasG12V nanoclustering-FRET” value (H-RasG12V nanoclustering) of the same compound?
**A.** not H-RasG12V-nanoclustering
